Reference: paper PMC4569258
“Also recorded” adds a separate entry of the source. Like-named read-outs stand apart in the source and are kept apart here. Values belong to the compound of their own block, whether it stands above or below them.

What was measured:
[1] = target: T1, glucocorticoid receptor (GR) (Homo sapiens, UniProt P04150); assay: GR gene reporter assay in AZ-GR cells; format: cell-based; conditions: for effect on dexamethasone-inducible transcriptional activity of GR, in words / IC50: antagonist mode; for effect on dexamethasone-inducible transcriptional activity of GR, in words: DEX 100 nM; for IC50: in presence of DEX 100 nM
T1 sequence (P04150 1-777): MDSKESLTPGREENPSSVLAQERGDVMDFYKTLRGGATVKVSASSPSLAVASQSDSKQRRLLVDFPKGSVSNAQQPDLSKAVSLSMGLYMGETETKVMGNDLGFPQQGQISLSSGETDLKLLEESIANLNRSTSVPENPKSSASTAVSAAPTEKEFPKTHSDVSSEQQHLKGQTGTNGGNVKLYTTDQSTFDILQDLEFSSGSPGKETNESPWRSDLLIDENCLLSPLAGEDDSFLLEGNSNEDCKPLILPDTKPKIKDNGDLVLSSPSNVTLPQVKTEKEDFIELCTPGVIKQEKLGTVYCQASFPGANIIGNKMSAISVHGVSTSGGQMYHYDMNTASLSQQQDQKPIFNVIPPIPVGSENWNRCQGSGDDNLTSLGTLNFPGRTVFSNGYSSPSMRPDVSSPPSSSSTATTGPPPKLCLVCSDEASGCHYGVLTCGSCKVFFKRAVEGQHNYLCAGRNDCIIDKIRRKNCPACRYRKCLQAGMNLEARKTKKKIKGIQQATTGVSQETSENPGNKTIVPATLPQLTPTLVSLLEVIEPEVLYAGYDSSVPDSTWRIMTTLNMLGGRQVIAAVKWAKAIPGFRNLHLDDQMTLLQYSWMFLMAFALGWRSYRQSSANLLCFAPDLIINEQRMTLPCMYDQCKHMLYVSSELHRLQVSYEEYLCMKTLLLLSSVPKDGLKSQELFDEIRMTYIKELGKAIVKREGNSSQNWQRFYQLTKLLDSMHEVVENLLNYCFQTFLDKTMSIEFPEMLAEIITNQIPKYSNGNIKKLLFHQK
Procedure: Transcriptional activity of GR was assessed in human gene reporter cell line AZ-GR incubated for 24 h with tested compounds. […] The vehicle was DMSO (0.1% v/v). […] Treatments were performed in triplicates.

[2] = MTT cytotoxicity test in AZ-AHR cells; format: cell-based; conditions: human
Procedure: (§1) Prior to gene reporter assays, we examined the cytotoxicity of tested compounds in AZ-AHR, AZ-GR and LS180 cell lines. For this purpose, the cells were incubated for 24 h with individual enantiomers of atorvastatin, fluvastatin and rosuvastatin at concentrations ranging from 100 pM to 100 μM. The vehicle was DMSO (0.1% v/v). After the treatment, a conventional MTT test was performed and the values of IC50 were calculated.
(§2) Fig 2 Cytotoxicity of statin enantiomers in human cancer cell lines. […] After the treatment, a conventional MTT test was performed and absorbance was measured at 540 nm. Treatments were performed in triplicates.

[3] = MTT cytotoxicity test in AZ-GR cells; format: cell-based; conditions: human, AZ-GR cells (HeLa-derived GR luciferase reporter cell line)
Procedure: as §1, §2

[4] = MTT cytotoxicity test in LS180 cells; format: cell-based; conditions: human, LS180 colon adenocarcinoma cells
Procedure: as §1, §2

[5] = target: T2, pregnane X receptor (PXR) (Homo sapiens, UniProt O75469); conditions: for effect on rifampicin-inducible PXR transcriptional activity, in words: antagonist mode, RIF 10 μM, 24 h; for rifampicin-inducible luciferase activity, minimum of U-shaped curve: with RIF 10 μM, concentrations range 10^−8 M-10^−6 M
T2 sequence (O75469 1-434): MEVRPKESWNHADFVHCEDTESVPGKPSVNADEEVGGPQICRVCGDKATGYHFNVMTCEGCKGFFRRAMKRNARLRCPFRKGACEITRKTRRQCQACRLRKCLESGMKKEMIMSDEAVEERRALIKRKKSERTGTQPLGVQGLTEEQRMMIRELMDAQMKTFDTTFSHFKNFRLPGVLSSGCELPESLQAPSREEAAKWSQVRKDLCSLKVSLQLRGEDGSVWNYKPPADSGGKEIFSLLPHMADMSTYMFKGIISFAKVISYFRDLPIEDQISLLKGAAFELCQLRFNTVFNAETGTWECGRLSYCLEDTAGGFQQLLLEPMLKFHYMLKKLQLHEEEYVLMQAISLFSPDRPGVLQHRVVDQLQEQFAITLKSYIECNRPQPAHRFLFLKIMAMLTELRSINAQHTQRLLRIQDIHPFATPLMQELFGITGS

[6] = target: T3, aryl hydrocarbon receptor (AhR) (Homo sapiens, UniProt P35869); assay: cell-based
T3 sequence (P35869 11-848): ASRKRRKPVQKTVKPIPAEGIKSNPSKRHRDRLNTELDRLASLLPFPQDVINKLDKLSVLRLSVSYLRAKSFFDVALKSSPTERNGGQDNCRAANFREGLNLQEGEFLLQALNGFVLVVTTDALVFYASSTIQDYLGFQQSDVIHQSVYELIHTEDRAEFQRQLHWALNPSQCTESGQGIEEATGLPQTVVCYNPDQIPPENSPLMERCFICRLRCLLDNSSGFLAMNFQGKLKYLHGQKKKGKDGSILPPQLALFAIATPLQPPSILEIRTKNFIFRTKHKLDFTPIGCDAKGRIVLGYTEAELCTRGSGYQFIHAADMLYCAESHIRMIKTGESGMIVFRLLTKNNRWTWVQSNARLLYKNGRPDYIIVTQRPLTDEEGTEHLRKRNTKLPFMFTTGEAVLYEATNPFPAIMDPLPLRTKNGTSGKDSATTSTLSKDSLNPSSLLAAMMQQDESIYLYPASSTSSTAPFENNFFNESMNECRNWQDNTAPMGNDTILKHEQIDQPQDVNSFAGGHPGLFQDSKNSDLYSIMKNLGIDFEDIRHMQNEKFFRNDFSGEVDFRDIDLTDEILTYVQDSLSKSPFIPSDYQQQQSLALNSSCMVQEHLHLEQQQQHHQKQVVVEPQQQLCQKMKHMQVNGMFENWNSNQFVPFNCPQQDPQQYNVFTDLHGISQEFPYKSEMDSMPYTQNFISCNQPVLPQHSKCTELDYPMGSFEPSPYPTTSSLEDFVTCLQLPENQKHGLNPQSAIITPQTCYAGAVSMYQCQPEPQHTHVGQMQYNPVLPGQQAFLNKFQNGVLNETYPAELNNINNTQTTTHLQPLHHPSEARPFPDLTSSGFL
Procedure: (§5) A stably transfected gene reporter cell line AZ-AHR, derived from human hepatoma HepG2 cells transfected with a construct containing several AhR binding sites upstream of a luciferase reporter gene, was used for assessment of AhR transcriptional activity [20].
(§6) Transcriptional activity of AhR was assessed in human gene reporter cell line AZ-AHR incubated for 24 h with tested compounds.
(§7) AZ-AHR cells were seeded in 96-well plates and stabilized for 16 h and then incubated for 24 h with enantiopure forms of atorvastatin, rosuvastatin and fluvastatin in concentration ranging from 10^−10 M to 10^−4 M in the absence (agonist mode–upper panels) or presence (antagonist mode–lower panels) of dioxin (TCDD; 5 nM). The vehicle was DMSO (0.1% v/v). After the treatments, cells were lysed and luciferase activity was measured. Treatments were performed in triplicates. Data are expressed as a fold induction of luciferase activity over control cells (agonist mode) or as a percentage of maximal activation attained by TCDD (antagonist mode). The values of EC50 and IC50 from n independent cell passages were calculated where appropriate and the average values are indicated in plots. Representative gene reporter assays are shown.

[7] = target: T3, aryl hydrocarbon receptor (AhR); assay: AhR gene reporter assay in AZ-AHR cells; conditions: for IC50: AhR antagonist IC50, antagonist mode, in presence of TCDD 5 nM
Procedure: as §5, §6, §7

CYP2A6 mRNA = conditions: for induction of CYP2A6 mRNA: 10 μM
CYP3A4 protein = conditions: HH59, HH61, HH63; 48 h
Procedure: (§8) Total protein extracts were prepared from cells cultured on 6-well plates. Cells were washed twice with ice-cold PBS and scraped into 1 ml of PBS. The suspension was centrifuged (4500 rpm/5 min/4°C) and the pellet was resuspended in 150 μl of ice-cold lysis buffer (150 mM NaCl; 10 mM Tris pH 7.2; 0.1% (w/v) SDS; anti-protease cocktail, 1% (v/v) Triton X-100; anti-phosphatase cocktail, 1% (v/v) sodium deoxycholate; 5 mM EDTA). The mixture was vortexed and incubated for 10 min on ice and then centrifuged (15000 rpm/13 min/4°C). Supernatant was collected and the protein content was determined by the Bradford reagent.
All reagents used for running the simple western by Sally Sue ^TM were obtained from ProteinSimple (San Jose, California) and prepared according to manufacturer’s recommendations (http://www.proteinsimple.com/sally_sue.html). […] Antibody diluent, goat anti-rabbit secondary antibody, and goat anti-mouse secondary antibody were purchased from ProteinSimple. The capillaries, containing a proprietary UV-activated chemical linked reagent and 384-well plates were obtained from ProteinSimple. […] The resulting chemiluminescent signal was detected and quantified by the Compass Software version 2.6.5.0 (ProteinSimple). For quantitative data analysis, the CYPs signals were normalized to β-actin as a loading control.

CYP1A1 mRNA = CYP1A1 mRNA (qRT-PCR) in primary human hepatocytes; format: cell-based; conditions: 5 nM
Procedure: (§3) Cells were cultured in serum-free medium.
(§4) Measurements were performed in triplicates.

CYP1A2 mRNA = CYP1A2 mRNA (qRT-PCR) in primary human hepatocytes; format: cell-based; conditions: 5 nM
Procedure: as §3, §4

CYP1A1 protein = CYP1A1 protein (Simple Western) in primary human hepatocytes; format: cell-based; conditions: 5 nM
Procedure: as §3

CYP1A2 protein = CYP1A2 protein (Simple Western) in primary human hepatocytes; format: cell-based; conditions: 5 nM
Procedure: as §3

CYP2B6 mRNA = conditions: 10 μM
CYP2A6 protein = conditions: 10 μM
Procedure: as §8
(§9) All reagents used for running the simple western by Sally Sue ^TM were obtained from ProteinSimple (San Jose, California) and prepared according to manufacturer’s recommendations (http://www.proteinsimple.com/sally_sue.html). […] Antibody diluent, goat anti-rabbit secondary antibody, and goat anti-mouse secondary antibody were purchased from ProteinSimple. The capillaries, containing a proprietary UV-activated chemical linked reagent and 384-well plates were obtained from ProteinSimple. All samples and reagents were prepared according to the recommended ProteinSimple manual. Target proteins were identified using primary antibodies and immunoprobed using a horseradish peroxidase-conjugated secondary antibody and chemiluminescent substrate. The resulting chemiluminescent signal was detected and quantified by the Compass Software version 2.6.5.0 (ProteinSimple). For quantitative data analysis, the CYPs signals were normalized to β-actin as a loading control.

CYP2B6 protein = conditions: 10 μM
Procedure: as §8, §9

- effect on dexamethasone-inducible transcriptional activity of GR, in words ([1]; 24 h): decreased
Compound: CC(C)c1c(C(=O)Nc2ccccc2)c(-c2ccccc2)c(-c2ccc(F)cc2)n1CC[C@@H](O)C[C@@H](O)CC(=O)O [3R5R-atorvastatin]

Compound: CC(C)c1nc(N(C)S(C)(=O)=O)nc(-c2ccc(F)cc2)c1C=CC(O)CC(O)CC(=O)O (stereo not drawn) [3R5R-rosuvastatin, 3R5R- rosuvastatin]
- IC50 at 24 h [2]: > 100 µM
- IC50 at 24 h [3]: > 100 µM
- IC50 at 24 h [4]: > 100 µM
- EC50 ([1]; agonist mode, 24 h): > 100 µM
- IC50 ([1]; 24 h): > 100 µM
- effect on rifampicin-inducible PXR transcriptional activity, in words [5]: U-shaped curve
- rifampicin-inducible luciferase activity, minimum of U-shaped curve [5]: 60 % of rifampicin value
- EC50 [6]: > 100 µM
- IC50 ([7]; 24 h): > 100 µM

Compound: CC(C)c1nc(N(C)S(C)(=O)=O)nc(-c2ccc(F)cc2)c1C=CC(O)CC(O)CC(=O)O (stereo not drawn) [3R5S-rosuvastatin]
- effect on dexamethasone-inducible transcriptional activity of GR, in words ([1]; 24 h): decreased
- IC50 ([1]; 24 h): 89.7 ± 12.6 µM
- effect on rifampicin-inducible PXR transcriptional activity, in words [5]: inverse U-shaped curve
- induction of CYP2A6 mRNA, in words (CYP2A6 mRNA; HH59, HH61, HH63, 24 h, 1, 10, 30 μM): weak increase of CYP2A6 mRNA in culture HH61; also recorded: induced CYP2A6 mRNA
- induction of CYP3A4 protein, in words (CYP3A4 protein): significant induction of CYP3A4 protein
- EC50 [6]: > 100 µM
- IC50 ([7]; 24 h): 53.5 ± 60.4 µM
- effect on TCDD-inducible transcriptional activity of AhR, in words ([7]; antagonist mode, TCDD 5 nM, 24 h): dose-dependently inhibited

Compound: CC(C)c1nc(N(C)S(C)(=O)=O)nc(-c2ccc(F)cc2)c1C=CC(O)CC(O)CC(=O)O (stereo not drawn) [3S5R-rosuvastatin, 3S5R- rosuvastatin]
- IC50 ([1]; 24 h): > 100 µM
- effect on rifampicin-inducible PXR transcriptional activity, in words [5]: not influenced
- induction of CYP3A4 protein, in words (CYP3A4 protein): significant induction of CYP3A4 protein
- EC50 [6]: > 100 µM
- IC50 ([7]; 24 h): > 100 µM

Compound: CC(C)n1c(C=CC(O)CC(O)CC(=O)O)c(-c2ccc(F)cc2)c2ccccc21 (stereo not drawn) [3S5S-fluvastatin]
- IC50 at 24 h [2]: > 100 µM
- IC50 at 24 h [3]: > 100 µM
- IC50 at 24 h [4]: > 100 µM
- efficacy: average induction of PXR luciferase activity ([5]; 100 μM concentration, agonist mode): around 3 fold
- EC50 [6]: 14.7 ± 0.9 µM
- IC50 ([7]; 24 h): > 100 µM
- effect on AhR-dependent luciferase activity (agonist mode), in words ([7]; agonist mode, 24 h): slightly increased luciferase activity

Compound: CC(C)c1nc(N(C)S(C)(=O)=O)nc(-c2ccc(F)cc2)c1C=CC(O)CC(O)CC(=O)O (stereo not drawn) [3S5S-rosuvastatin]
- IC50 ([1]; 24 h): > 100 µM
- effect on rifampicin-inducible PXR transcriptional activity, in words [5]: U-shaped curve
- rifampicin-inducible luciferase activity, minimum of U-shaped curve [5]: 60 % of rifampicin value
- EC50 [6]: 17.5 ± 0.4 µM
- IC50 ([7]; 24 h): > 100 µM
- efficacy of AhR activation, % of induction attained by TCDD ([7]; agonist mode): about 0.1%
- effect on AhR-dependent luciferase activity (agonist mode), in words ([7]; agonist mode, 24 h): dose-dependently increased luciferase activity

Compound: Clc1cc2c(cc1Cl)Oc1cc(Cl)c(Cl)cc1O2 [TCDD, 2,3,7,8-tetrachlorodibenzo-p-dioxin]
- induction of CYP1A1 mRNA (CYP1A1 mRNA; culture HH59, 24 h): 98 fold
- induction of CYP1A1 mRNA (CYP1A1 mRNA; culture HH61, 24 h): 339 fold
- induction of CYP1A1 mRNA (CYP1A1 mRNA; culture HH63, 24 h): 278 fold
- induction of CYP1A2 mRNA (CYP1A2 mRNA; culture HH59, 24 h): 110 fold
- induction of CYP1A2 mRNA (CYP1A2 mRNA; culture HH61, 24 h): 143 fold
- induction of CYP1A2 mRNA (CYP1A2 mRNA; culture HH63, 24 h): 45 fold
- induction of CYP1A1 protein (CYP1A1 protein; culture HH59, 48 h): 35 fold
- induction of CYP1A1 protein (CYP1A1 protein; culture HH61, 48 h): 220 fold
- induction of CYP1A1 protein (CYP1A1 protein; culture HH63, 48 h): 35 fold
- induction of CYP1A2 protein (CYP1A2 protein; culture HH59, 48 h): 19 fold
- induction of CYP1A2 protein (CYP1A2 protein; culture HH61, 48 h): 83 fold
- induction of CYP1A2 protein (CYP1A2 protein; culture HH63, 48 h): 50 fold
- average induction of AhR-dependent luciferase activity ([7]; 5 nM, eight consecutive passages, vs DMSO-treated cells): 1107 fold

Compound: C[C@@H]1C[C@H]2[C@@H]3CCC4=CC(=O)C=C[C@]4(C)[C@@]3(F)[C@@H](O)C[C@]2(C)[C@@]1(O)C(=O)CO [dexamethasone]
- average induction of GR-dependent luciferase activity ([1]; 100 nM, eight consecutive passages, vs DMSO-treated cells): 32 fold

- induction of CYP2A6 mRNA (CYP2A6 mRNA; culture HH59, 24 h): 2.4 fold
- induction of CYP2A6 mRNA (CYP2A6 mRNA; culture HH61, 24 h): 5.2 fold
- induction of CYP2A6 mRNA (CYP2A6 mRNA; culture HH63, 24 h): 7.1 fold
- induction of CYP2B6 mRNA (CYP2B6 mRNA; culture HH59, 24 h): 5.8 fold
- induction of CYP2B6 mRNA (CYP2B6 mRNA; culture HH61, 24 h): 16 fold
- induction of CYP2B6 mRNA (CYP2B6 mRNA; culture HH63, 24 h): 6.9 fold
- induction of CYP2A6 protein (CYP2A6 protein; culture HH59, 48 h): 4.8 fold
- induction of CYP2A6 protein (CYP2A6 protein; culture HH61, 48 h): 7.3 fold
- induction of CYP2A6 protein (CYP2A6 protein; culture HH63, 48 h): 2.3 fold
- induction of CYP2B6 protein (CYP2B6 protein; culture HH59, 48 h): 8.4 fold
- induction of CYP2B6 protein (CYP2B6 protein; culture HH61, 48 h): 5.9 fold
- induction of CYP2B6 protein (CYP2B6 protein; culture HH63, 48 h): 7.7 fold
Compound: CO[C@H]1/C=C/O[C@@]2(C)Oc3c(C)c(O)c4c(O)c(c(/C=N/N5CCN(C)CC5)c(O)c4c3C2=O)NC(=O)/C(C)=C\C=C\[C@H](C)[C@H](O)[C@@H](C)[C@@H](O)[C@@H](C)[C@H](OC(C)=O)[C@@H]1C [rifampicin]
